Source: patent US7799530B2, “Genetic polymorphisms associated with cardiovascular disorders and drug response, methods of detection and uses thereof” (Celera Corporation, priority 2005, dated 2010)

Key:
[1] = system: MI / coronary events in Scottish men with hypercholesterolemia; test: WOSCOPS nested case-control study: MI/CHD in pravastatin- vs placebo-treated patients stratified by SNP genotype; type: in vivo, human; settings: for OR, CHD case vs control, Matched: placebo = ref 1.00, cases and controls matched for age and smoking; for OR, CHD case vs control, Adjusted: placebo = ref 1.00, matched and adjusted for hypertension, diabetes, BMI, LDL-C, HDL-C; for Risk Reduction by Statin (Pravastatin vs. Placebo) OR: odds ratio of MI, pravastatin- vs placebo-treated, heterozygous carriers of hCV3054799 only
From the text: In order to identify genetic markers associated with acute coronary events (e.g. MI, stroke, unstable angina, congestive heart failure, etc.) or response to statin treatment for the prevention of coronary events, samples were genotyped in two clinical trials: the Cholesterol and Recurrent Events (CARE) study (a randomized multicentral double-blinded trial on secondary prevention of acute coronary events with pravastatin; Sacks et al., Am. J. Cardiol. 68: 1436-1446[1991]), and the West of Scotland Coronary Prevention Study (WOSCOPS) study (Shepherd et al., N Eng J Med 333 (20), pp. 1301-7, Nov. 16, 1995; Packard et al., N Eng J Med 343 (16), pp. 1148-55, Oct. 19, 2000).
Genetic markers identified as associated with acute coronary events or response to statin treatment for the prevention of coronary events in the CARE samples were also genotyped in a second sample set, the West of Scotland Coronary Prevention Study (WOSCOPS). The design of the original WOSCOPS cohort and the nested case-control study have been described (Shepherd et al., N Eng J Med 333 (20), pp. 1301-7, Nov. 16, 1995; Packard et al., N Eng J Med 343 (16), pp. 1148-55, Oct. 19, 2000). The objective of the WOSCOPS trial was to assess pravastatin efficacy at reducing risk of primary MI or coronary death among Scottish men with hypercholesterolemia (fasting LDL cholesterol>155 mg/dl). Participants in the WOSCOPS study were 45-64 years of age and followed for an average of 4.9 years for coronary events. The nested case-control study included as cases all WOSCOPS patients who experienced a coronary event (confirmed nonfatal MI, death from coronary heart disease, or a revascularization procedure; N=580). Controls were age- and smoking-matched unaffected patients. All individuals included in the study had signed informed consent forms and the study protocol was approved by the IRBs. DNA was extracted and genotyped as described above.
The association of hCV3054799 with risk of MI in patients was tested in two clinical trials, CARE and WOSCOPS, with patients receiving treatment with either pravastatin or placebo. CARE was a secondary prevention trial (i.e., recurrent MI as endpoint) and WOSCOPS was a primary prevention trial. […] The analysis in WOSCOPS (a nested case-control study) was performed using the MI as an endpoint.
In both the CARE and WOSCOPS studies, an association analysis was performed for each of the two modes of inheritance, dominant and recessive. Additionally, a genotypic test (heterozygote v. major homozygote) and an allelic test of association were performed using Fisher's exact method. Estimates of odds ratios and corresponding ninety-five percent confidence intervals were calculated. The significance of the disease association for hCV3054799 with the overall (unstratified) population, and with the placebo- or pravastatin-treated patients are indicated in Table 8. […] In patients that are heterozygous carriers of the minor allele, the odds ratio for risk of MI relative to patients with no minor allele is 1.7, with a P value below 0.01 both studies. The odds ratio is approximately the same (1.6-1.7) when calculated for the dominant mode of inheritance (a genotype with one or two minor alleles vs. none), with a P value less than or equal to 0.01 in both studies.
Also analyzed was whether hCV3054799 is associated with response to statin treatment (specifically, a decreased risk of MI as a result of treatment with pravastatin). […] Heterozygous carriers in the placebo treatment group were used as a reference in determining the odds ratios. […] For comparison, the odds ratio for association of this SNP with MI risk in placebo-treated carriers is also presented, under the heading “MI/RMI risk estimation” (data from Table 8; again, heterozygous carriers).
In analyzing the CARE patients, statistical analysis was performed with SAS version 9. […]

[2] = system: animal models and myocyte cultures; settings: compared to other hydrophobic statins; cited from earlier work

Compound: CC[C@H](C)C(=O)O[C@H]1C[C@H](O)C=C2C=C[C@H](C)[C@H](CC[C@@H](O)C[C@@H](O)CC(=O)O)[C@H]21 [pravastatin]
- OR, CHD case vs control, Matched ([1]; KIF6 hCV3054799 AA): 0.94
- OR, CHD case vs control, Adjusted ([1]; KIF6 hCV3054799 AA): 0.91
- OR, CHD case vs control, Matched ([1]; KIF6 hCV3054799 GG + GA): 0.50
- OR, CHD case vs control, Adjusted ([1]; KIF6 hCV3054799 GG + GA): 0.50
- Risk Reduction by Statin (Pravastatin vs. Placebo) OR [1]: approximately 0.5
- Risk Reduction by Statin (Pravastatin vs. Placebo) OR ([1]; listed as Pravastatin): 0.45
- myopathic potential [2]: low myopathic potential
